Data on 35 compounds can be found in patent publication US8497380B2, “Substituted acetophenones useful as PDE4 inhibitors” (Leo Pharma A/S, priority 2006, dated 2013).

Bounds are passed on as bounds.

The experiment deals with Human peripheral blood mononuclear cells (PBMC). Nature of the experiment: TNFalfa-Release. It is filed as cell-based. The settings on record: inhibition of TNF-a secretion, PBMC pre-incubated 30 minutes, stimulated 18 hours with lipopolysaccharide. On the procedure:
Human peripheral blood mononuclear cells (PBMC) are Isolated from buffy coats. The blood is mixed with saline at a ratio of 1:1, and the PBMC is isolated by the use of Lymphoprep Tubes™ (Nycomed, Norway). The PBMC is suspended in RPMI1640 with 2% foetal calf serum (FCS), pen/strep and 2 mM L-glutamine at a concentration of 5×105 c/ml. The cells are pre-incubated for 30 minutes with the test compounds in 96 well tissue culture plates and stimulated for 18 hours with lipopolysaccharide 1 mg/ml (Sigma). The level of TNF-a is measured in the culture supernatant by enzyme immuno assays using primary and secondary biotinylated antibodies from R&D systems. Results are expressed as pIC50 values calculated from inhibition curves using as positive controls the secretion in LPS stimulated wells and as negative controls the secretion in unstimulated cells.
As usually defined, the IC50 is the point on the concentration scale where inhibition reaches its midpoint. A high value points to weaker potency. Take `COc1ccc(C(=O)Cc2c(Cl)cncc2Cl)c(O)c1OC1CCCC1` [Compound 260, 1-(3-Cyclopentyloxy-2-hydroxy-4-methoxy-phenyl)-2-(3,5-dichloro-pyridin-4-yl)-ethanone]: the IC50 is less than 1000 nM.

In turn, `COCCNC(=O)COc1c(C(=O)Cc2c(Cl)cncc2Cl)ccc(OC)c1OC` [Compound 223, 2-{6-(2-(3,5-Dichloro-pyridin-4-yl)-acetyl)-2,3-dimethoxy-phenoxy}-N-(2-methoxy-ethyl)-acetamide] gave an IC50 of less than 1000 nM.

`COc1ccc(C(=O)Cc2c(Cl)cncc2Cl)c(OCC(=O)NCc2cc(F)cc(F)c2)c1OC` [Compound 234, 2-{6-[2-(3,5-Dichloro-pyridin-4-yl)-acetyl]-2,3-dimethoxy-phenoxy}-N-(3,5-difluoro-benzyl)-acetamide] gave an IC50 of less than 1000 nM.

As to `COc1ccc(CCOc2c(C(=O)Cc3c(Cl)cncc3Cl)ccc(OC)c2OC)cc1OC` [Compound 131, 2-(3,5-Dichloro-pyridin-4-yl)-1-{2-[2-(3,4-dimethoxy-phenyl)-ethoxy]-3,4-dimethoxy-phenyl}-ethanone], the IC50 is less than 1000 nM.

`COc1ccc(C(=O)Cc2c(Cl)cncc2Cl)c(OCC(=O)NCc2ccc(C)cc2)c1OC` [Compound 240, 2-{6-[2-(3,5-Dichloro-pyridin-4-yl)-acetyl]-2,3-dimethoxy-phenoxy}-N-(4-methyl-benzyl)-acetamide] had a 50% inhibitory concentration (IC50) of less than 1000 nM.

In the case of `COc1ccc(CCOc2c(C(=O)Cc3c(Cl)cncc3Cl)ccc(OC)c2OC)cc1` [Compound 126, 2-(3,5-Dichloro-pyridin-4-yl)-1-{3,4-dimethoxy-2-[2-(4-methoxy-phenyl)-ethoxy]-phenyl}-ethanone], the IC50 was less than 1000 nM.

The compound `COc1ccc(C(=O)Cc2c(Cl)cncc2Cl)c(OCC(=O)NCc2ccccc2)c1OC` [Compound 203, N-Benzyl-2-{6-[2-(3,5-dichloro-pyridin-4-yl)-acetyl]-2,3-dimethoxy-phenoxy}-acetamide] showed a half-maximal inhibitory concentration (IC50) of less than 1000 nM.

Regarding `COc1ccc(C(=O)Cc2c(Cl)cncc2Cl)c(OCC(=O)N2CCOCC2)c1OC` [Compound 204, 2-(3,5-Dichloro-pyridin-4-yl)-1-[3,4-dimethoxy-2-(2-morpholin-4-yl-2-oxo-ethoxy)-phenyl]-ethanone], the half-maximal inhibitory concentration (IC50) is less than 1000 nM.

The compound `COc1ccc(C(=O)Cc2c(Cl)cncc2Cl)c(OCC2CCCCC2)c1OC` [Compound 151, 1-(2-Cyclohexylmethoxy-3,4-dimethoxy-phenyl)-2-(3,5-dichloro-pyridin-4-yl)-ethanone] showed an IC50 of less than 1000 nM.

Compound `C=CCOc1c(C(=O)Cc2c(Cl)cncc2Cl)ccc(OC)c1OC` [Compound 114, 1-(2-Allyloxy-3,4-dimethoxy-phenyl)-2-(3,5-dichloro-pyridin-4-yl)-ethanone] showed an IC50 of less than 1000 nM.

For the compound `CCOc1c(OC)ccc(C(=O)Cc2c(Cl)cncc2Cl)c1OCc1nnc(C2CC2)s1` [Compound 264, 1-[2-(5-Cyclopropyl-[1,3,4]thiadiazol-2-ylmethoxy)-3-ethoxy-4-methoxy-phenyl]-2-(3,5-dichloro-pyridin-4-yl)-ethanone], the IC50 is less than 1000 nM.

For `COc1ccc(C(=O)Cc2c(Cl)cncc2Cl)c(OCC(=O)NCc2cccc(Cl)c2)c1OC` [Compound 246, N-(3-Chloro-benzyl)-2-{6-(2-(3,5-dichloro-pyridin-4-yl)-acetyl)-2,3-dimethoxy-phenoxy}-acetamide], the IC50 is less than 1000 nM.

As for `COc1ccc(C(=O)Cc2c(Cl)cncc2Cl)c(OCC(=O)NCc2ccco2)c1OC` [Compound 228, 2-{6-[2-(3,5-Dichloro-pyridin-4-yl)-acetyl]-2,3-dimethoxy-phenoxy}-N-furan-2-ylmethyl-acetamide], the concentration for half-maximal inhibition (IC50) was less than 1000 nM.

Compound `COc1ccc(C(=O)Cc2c(Cl)cncc2Cl)c(OCC(=O)NCCCO)c1OC` [Compound 222, 2-{6-[2-(3,5-Dichloro-pyridin-4-yl)-acetyl]-2,3-dimethoxy-phenoxy}-N-(3-hydroxy-propyl)-acetamide] showed an IC50 of less than 1000 nM.

As for `C=CCOc1c(OC)ccc(C(=O)Cc2c(Cl)cncc2Cl)c1OC` [Compound 193, 1-(3-Allyloxy-2,4-dimethoxy-phenyl)-2-(3,5-dichloro-pyridin-4-yl)-ethanone], the IC50 was less than 1000 nM.

`COc1ccc(C(=O)Cc2c(Cl)cncc2Cl)c(OC(F)F)c1OC(F)F` [Compound 107, 1-(2,3-Bis-difluoromethoxy-4-methoxy-phenyl)-2-(3,5-dichloro-pyridin-4-yl)-ethanone] gave an IC50 of less than 1000 nM.

`COc1ccc(C(=O)Cc2c(Cl)cncc2Cl)c(OCc2cccc(Cl)c2)c1OC` [Compound 144, 1-[2-(3-Chloro-benzyloxy)-3,4-dimethoxy-phenyl]-2-(3,5-dichloro-pyridin-4-yl)-ethanone]: the half-inhibitory concentration (IC50) was less than 1000 nM.

For the compound `COc1ccc(C(=O)Cc2c(Cl)cncc2Cl)c(OCc2nc3ccccc3o2)c1OC` [Compound 115, 1-[2-(Benzooxazol-2-ylmethoxy)-3,4-dimethoxy-phenyl]-2-(3,5-dichloro-pyridin-4-yl)-ethanone], the IC50 is less than 1000 nM.

The compound `CCOc1c(OC)ccc(C(=O)Cc2c(Cl)cncc2Cl)c1OC` [Compound 188, 2-(3,5-Dichloro-pyridin-4-yl)-1-(3-ethoxy-2,4-dimethoxy-phenyl)-ethanone] gave an IC50 of less than 1000 nM.

The compound `COc1ccc(C(=O)Cc2c(Cl)cncc2Cl)c(OCCc2ccccc2)c1OC` [Compound 112, 2-(3,5-Dichloro-pyridin-4-yl)-1-(3,4-dimethoxy-2-phenethyloxy-phenyl)-ethanone] gave an IC50 of less than 1000 nM.

Take `CCOc1c(OC)ccc(C(=O)Cc2c(Cl)cncc2Cl)c1OCCc1ccccc1` [Compound 263, 2-(3,5-Dichloro-pyridin-4-yl)-1-(3-ethoxy-4-methoxy-2-phenethyloxy-phenyl)-ethanone]: the IC50 was less than 1000 nM.

For the compound `CCCNC(=O)COc1c(C(=O)Cc2c(Br)cncc2Br)ccc(OC)c1OC` [Compound 293, 2-{6-[2-(3,5-Dibromo-pyridin-4-yl)-acetyl]-2,3-dimethoxy-phenoxy}-N-propyl-acetamide], the IC50 is less than 1000 nM.

Regarding `COc1ccc(C(=O)Cc2c(Cl)cncc2Cl)c(OCC(=O)NCCOc2ccccc2)c1OC` [Compound 231, 2-{6-[2-(3,5-Dichloro-pyridin-4-yl)-acetyl]-2,3-dimethoxy-phenoxy}-N-(2-phenoxy-ethyl)-acetamide], the IC50 is less than 1000 nM.

In turn, `C=CCOc1c(OC)ccc(C(=O)Cc2c(Cl)cncc2Cl)c1OCc1ccccc1C#N` [Compound 267, 2-{2-Allyloxy-6-[2-(3,5-dichloro-pyridin-4-yl)-acetyl]-3-methoxy-phenoxymethyl}-benzonitrile] showed an IC50 of less than 1000 nM.

Take `COc1ccc(C(=O)Cc2c(Cl)cncc2Cl)c(OCc2ccccc2F)c1OC` [Compound 161, 2-(3,5-Dichloro-pyridin-4-yl)-1-[2-(2-fluoro-benzyloxy)-3,4-dimethoxy-phenyl]-ethanone]: the IC50 was less than 1000 nM.

With `COc1ccc(C(=O)Cc2c(Cl)cncc2Cl)c(OCC(=O)NCc2cccc(F)c2)c1OC` [Compound 238, 2-{6-[2-(3,5-Dichloro-pyridin-4-yl)-acetyl]-2,3-dimethoxy-phenoxy}-N-(3-fluoro-benzyl)-acetamide], the half-inhibitory concentration (IC50) was less than 1000 nM.

`CCCCOc1c(C(=O)Cc2c(Cl)cncc2Cl)ccc(OC)c1OC` [Compound 140, 1-(2-Butoxy-3,4-dimethoxy-phenyl)-2-(3,5-dichloro-pyridin-4-yl)-ethanone] gave an IC50 of less than 1000 nM.

`COc1ccc(CNC(=O)COc2c(C(=O)Cc3c(Cl)cncc3Cl)ccc(OC)c2OC)cc1` [Compound 213, 2-{6-[2-(3,5-Dichloro-pyridin-4-yl)-acetyl]-2,3-dimethoxy-phenoxy}-N-(4-methoxy-benzyl)-acetamide] gave an IC50 of less than 1000 nM.

`CCOC(=O)COc1c(C(=O)Cc2c(Cl)cncc2Cl)ccc(OC)c1OC` [Compound 119, {6-[2-(3,5-Dichloro-pyridin-4-yl)-acetyl]-2,3-dimethoxy-phenoxy}-acetic acid ethyl ester] showed an IC50 of less than 1000 nM.

In the case of `C=CCOc1c(OC)ccc(C(=O)Cc2c(Cl)cncc2Cl)c1OCC=C` [Compound 106, 1-(2,3-Bis-allyloxy-4-methoxy-phenyl)-2-(3,5-dichloro-pyridin-4-yl)-ethanone], the IC50 was less than 1000 nM.

Regarding `C=CCOc1c(OC)ccc(C(=O)Cc2c(Cl)cncc2Cl)c1OCCc1ccccc1` [Compound 268, 1-(3-Allyloxy-4-methoxy-2-phenethyloxy-phenyl)-2-(3,5-dichloro-pyridin-4-yl)-ethanone], the IC50 was less than 1000 nM.

`CCCNC(=O)COc1c(C(=O)Cc2c(Cl)cncc2Cl)ccc(OC)c1OC` [Compound 208, 2-{6-[2-(3,5-Dichloro-pyridin-4-yl)-acetyl]-2,3-dimethoxy-phenoxy}-N-propyl-acetamide] gave an IC50 of less than 1000 nM.

In turn, `COc1ccc(C(=O)Cc2c(Cl)cncc2Cl)c(OCC(=O)NCCNC(C)=O)c1OC` [Compound 251, N-(2-Acetylamino-ethyl)-2-{6-[2-(3,5-dichloro-pyridin-4-yl)-acetyl]-2,3-dimethoxy-phenoxy}-acetamide] had an IC50 of less than 1000 nM.

Consider `COc1ccc(C(=O)COc2c(C(=O)Cc3c(Cl)cncc3Cl)ccc(OC)c2OC)cc1` [Compound 146, 2-(3,5-Dichloro-pyridin-4-yl)-1-{3,4-dimethoxy-2-[2-(4-methoxy-phenyl)-2-oxo-ethoxy]-phenyl}-ethanone], for which the IC50 is less than 1000 nM.

Take `COc1ccc(C(=O)Cc2c(Cl)cncc2Cl)c(OCC(=O)NCC2CCCCCC2)c1OC` [Compound 257, N-Cycloheptylmethyl-2-{6-[2-(3,5-dichloro-pyridin-4-yl)-acetyl]-2,3-dimethoxy-phenoxy}-acetamide]: the concentration for half-maximal inhibition (IC50) was less than 1000 nM.
